Assay results as given in patent US7473688B2, “Indolobenzazepine HCV NS5B inhibitors” (Bristol-Myers Squibb Company, priority 2005, dated 2009).
pIC50: −log10 of the molar value.

Molecular target: T1, HCV NS5B (Hepatitis C virus genotype 1b, UniProt Q9WMX2)
T1 construct: The protein was expressed with an 18 amino acid C-terminal truncation to enhance the solubility; made in house; host or cells: E. coli BL21 (DE3), pET21a
Test: HCV NS5B RdRp enzyme assay (preincubation protocol)
Assay type: biochemical
Conditions: Table 1, read-out: IC50*
Procedure: HCV NS5B RdRp cloning, expression, and purification. The cDNA encoding the NS5B protein of HCV, genotype 1b, was cloned into the pET21a expression vector. The protein was expressed with an 18 amino acid C-terminal truncation to enhance the solubility. The E. coli competent cell line BL21 (DE3) was used for expression of the protein. Cultures were grown at 37° C. for ˜4 hours until the cultures reached an optical density of 2.0 at 600 nm. The cultures were cooled to 20° C. and induced with 1 mM IPTG. Fresh ampicillin was added to a final concentration of 50 μg/ml and the cells were grown overnight at 20° C.
Cell pellets (3L) were lysed for purification to yield 15-24 mgs of purified NS5B. The lysis buffer consisted of 20 mM Tris-HCl, pH 7.4, 500 mM NaCl, 0.5% triton X-100, 1 mM DTT, 1 mM EDTA, 20% glycerol, 0.5 mg/ml lysozyme, 10 mM MgCl2, 15 ug/ml deoxyribonuclease I, and Complete TM protease inhibitor tablets (Roche). After addition of the lysis buffer, frozen cell pellets were resuspended using a tissue homogenizer. To reduce the viscosity of the sample, aliquots of the lysate were sonicated on ice using a microtip attached to a Branson sonicator. The sonicated lysate was centrifuged at 100,000×g for 1 hr at 4° C. and filtered through a 0.2 μm filter unit (Corning).
The protein was purified using three sequential chromatography steps: Heparin sepharose CL-6B, polyU sepharose 4B, and Hitrap SP sepharose (Pharmacia). The chromatography buffers were identical to the lysis buffer but contained no lysozyme, deoxyribonuclease I, MgCl2 or protease inhibitor and the NaCl concentration of the buffer was adjusted according to the requirements for charging the protein onto the column. Each column was eluted with a NaCl gradient which varied in length from 5-50 column volumes depending on the column type. After the final chromatography step, the resulting purity of the enzyme is >90% based on SDS-PAGE analysis. The enzyme was aliquoted and stored at −80° C.
Standard HCV NS5B RdRp enzyme assay. HCV RdRp genotype 1b assays were run in a final volume of 60 μl in 96 well plates (Costar 3912). The assay buffer is composed of 20 mM Hepes, pH 7.5, 2.5 mM KCl, 2.5 mM MgCl2, 1 mM DTT, 1.6 U RNAse inhibitor (Promega N2515), 0.1 mg/ml BSA (Promega R3961), and 2% glycerol. All compounds were serially diluted (3-fold) in DMSO and diluted further in water such that the final concentration of DMSO in the assay was 2%. HCV RdRp genotype 1b enzyme was used at a final concentration of 28 nM. A polyA template was used at 6 nM, and a biotinylated oligo-dT12 primer was used at 180 nM final concentration. Template was obtained commercially (Amersham 27-4110). Biotinylated primer was prepared by Sigma Genosys. 3H-UTP was used at 0.6 μCi (0.29 μM total UTP). Reactions were initiated by the addition of enzyme, incubated at 30° C. for 60 min, and stopped by adding […] of 50 mM EDTA containing SPA beads (4 μg/μl, Amersham RPNQ 0007). Plates were read on a Packard Top Count NXT after >1 hr incubation at room temperature.
Modified HCV NS5B RdRp enzyme assay. A modified enzyme assay was performed essentially as described for the standard enzyme assay except for the following: The biotinylated oligo dT12 primer was precaptured on streptavidin-coated SPA beads by mixing primer and beads in assay buffer and incubating at room temperature for one hour. Unbound primer was removed after centrifugation. The primer-bound beads were resuspended in 20 mM Hepes buffer, pH 7.5 and used in the assay at final concentrations of […] primer and 0.67 μg/μl beads. Order of addition in the assay: Enzyme (14 nM) was added to diluted compound followed by the addition of a mixture of template (0.2 nM), 3H-UTP (0.6 μCi, 0.29 μM), and primer-bound beads, to initiate the reaction; concentrations given are final. Reactions were allowed to proceed for 4 hours at 30° C.
IC50 values for compounds were determined using seven different [I]. […]

T1 sequence (Q9WMX2 2420-2992): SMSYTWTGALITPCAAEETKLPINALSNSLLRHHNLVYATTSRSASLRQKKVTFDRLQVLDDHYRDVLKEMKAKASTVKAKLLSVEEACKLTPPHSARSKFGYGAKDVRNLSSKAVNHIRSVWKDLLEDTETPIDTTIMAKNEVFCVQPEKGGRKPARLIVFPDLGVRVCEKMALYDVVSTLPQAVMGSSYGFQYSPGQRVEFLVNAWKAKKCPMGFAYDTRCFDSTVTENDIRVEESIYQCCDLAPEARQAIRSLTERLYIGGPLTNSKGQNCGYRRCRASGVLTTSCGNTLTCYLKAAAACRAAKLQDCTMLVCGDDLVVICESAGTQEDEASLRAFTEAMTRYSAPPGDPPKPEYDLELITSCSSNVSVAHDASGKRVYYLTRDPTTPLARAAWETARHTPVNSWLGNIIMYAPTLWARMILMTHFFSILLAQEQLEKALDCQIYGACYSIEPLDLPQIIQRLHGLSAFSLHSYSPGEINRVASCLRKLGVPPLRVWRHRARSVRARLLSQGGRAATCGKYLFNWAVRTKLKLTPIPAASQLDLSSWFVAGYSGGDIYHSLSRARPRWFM

SMILES	pIC50
CN(C)S(=O)(=O)NC(=O)c1ccc2c(C3CCCCC3)c3n(c2c1)CC(C(=O)N1CCC(F)CC1)=Cc1ccccc1-3 [drawing 74]	6.00 to 8.00
CON(C)S(=O)(=O)NC(=O)c1ccc2c(C3CCCCC3)c3n(c2c1)CC(C(=O)N1CCOCC1)=Cc1ccccc1-3 [drawing 90]	6.00 to 8.00
CN(C)S(=O)(=O)NC(=O)c1ccc2c(C3CCCCC3)c3n(c2c1)CC(C(=O)N1CCC(N2CCOCC2)CC1)=Cc1cc(OCc2ccccc2)ccc1-3 [drawing 139]	6.00 to 8.00
C[C@@H]1CN(CCNC(=O)C2=Cc3ccccc3-c3c(C4CCCCC4)c4ccc(C(=O)NS(=O)(=O)N(C)C)cc4n3C2)C[C@H](C)O1 [drawing 148]	6.00 to 8.00
C[C@@H]1CN(C(=O)NC2Cc3ccccc3-c3c(C4CCCCC4)c4ccc(C(=O)O)cc4n3C2)C[C@H](C)O1 (stereo partly shown) [drawing 151]	6.00 to 8.00
CN(C)S(=O)(=O)NC(=O)c1ccc2c(C3CCCCC3)c3n(c2c1)CC(NC(=O)N1CCOCC1)Cc1ccccc1-3 (stereo not shown) [drawing 153]	6.00 to 8.00
CN(C)S(=O)(=O)NC(=O)c1ccc2c(C3CCCCC3)c3n(c2c1)CC(NC(=O)N1CCOCC1)Cc1ccccc1-3 (stereo not shown) [drawing 155]	6.00 to 8.00
CC(=O)NN(C)C(=O)C1=Cc2ccccc2-c2c(C3CCCCC3)c3ccc(C(=O)O)cc3n2C1 [drawing 156]	6.00 to 8.00

Same assay, conditions: Table 1a, read-out: IC50*

SMILES	pIC50
COc1ccc2c(c1)C=C(C(=O)N1CCN(C(=O)c3ccco3)CC1)Cn1c-2c(C2CCCCC2)c2ccc(C(=O)NS(=O)(=O)N(C)C)cc21	6.00 to 8.00
COc1ccc2c(c1)C=C(C(=O)N1CCN(c3ccccc3OC)CC1)Cn1c-2c(C2CCCCC2)c2ccc(C(=O)NS(=O)(=O)N(C)C)cc21	6.00 to 8.00
COc1ccc2c(c1)C=C(C(=O)N1CCN(C(=O)N(C)C)CC1)Cn1c-2c(C2CCCCC2)c2ccc(C(=O)NS(=O)(=O)N(C)C)cc21	6.00 to 8.00
COc1ccc2c(c1)C=C(C(=O)N1CCN(C(=O)N3CCCC3)CC1)Cn1c-2c(C2CCCCC2)c2ccc(C(=O)NS(=O)(=O)N(C)C)cc21	6.00 to 8.00
COc1ccc2c(c1)C=C(C(=O)N1CCN(C(=O)N3CCCCC3)CC1)Cn1c-2c(C2CCCCC2)c2ccc(C(=O)NS(=O)(=O)N(C)C)cc21	6.00 to 8.00
COc1ccc2c(c1)C=C(C(=O)N1CCC(O)(c3cccnc3)CC1)Cn1c-2c(C2CCCCC2)c2ccc(C(=O)NS(=O)(=O)N(C)C)cc21	6.00 to 8.00
COc1ccc2c(c1)C=C(C(=O)N1CCC3(CC1)OC(=O)c1ccccc13)Cn1c-2c(C2CCCCC2)c2ccc(C(=O)NS(=O)(=O)N(C)C)cc21	6.00 to 8.00
COC(=O)CNC(=O)CNC(=O)C1=Cc2cc(OC)ccc2-c2c(C3CCCCC3)c3ccc(C(=O)NS(=O)(=O)N(C)C)cc3n2C1	6.00 to 8.00
COc1ccc2c(c1)C=C(C(=O)N1CCN(C(=O)CO)CC1)Cn1c-2c(C2CCCCC2)c2ccc(C(=O)NS(=O)(=O)N(C)C)cc21	6.00 to 8.00
CN(C)S(=O)(=O)NC(=O)c1ccc2c(C3CCCCC3)c3n(c2c1)CC(NC(=O)C1CCOCC1)Cc1ccccc1-3 (stereo not shown)	6.00 to 8.00
CN(C)S(=O)(=O)NC(=O)c1ccc2c(C3CCCCC3)c3n(c2c1)C[C@@H](NC(=O)N1CCOCC1)Cc1ccccc1-3	6.00 to 8.00
CN(C)S(=O)(=O)NC(=O)c1ccc2c(C3CCCCC3)c3n(c2c1)C[C@H](NC(=O)N1CCOCC1)Cc1ccccc1-3	6.00 to 8.00
COc1ccc2c(c1)C=C(C(=O)NCCNC(C)=O)Cn1c-2c(C2CCCCC2)c2ccc(C(=O)NS(=O)(=O)N(C)C)cc21	6.00 to 8.00
COc1ccc2c(c1)C=C(C(=O)N1CCC[C@H]1C(=O)N(C)C)Cn1c-2c(C2CCCCC2)c2ccc(C(=O)NS(=O)(=O)N(C)C)cc21	6.00 to 8.00
COc1ccc2c(c1)C=C(C(=O)N1CCC(Oc3ncccn3)CC1)Cn1c-2c(C2CCCCC2)c2ccc(C(=O)NS(=O)(=O)N(C)C)cc21	6.00 to 8.00
COc1ccc2c(c1)C=C(C(=O)N1CCN(c3nccs3)CC1)Cn1c-2c(C2CCCCC2)c2ccc(C(=O)NS(=O)(=O)N(C)C)cc21	6.00 to 8.00
COc1ccc2c(c1)C=C(C(=O)N1CCOC(c3ccccc3)C1)Cn1c-2c(C2CCCCC2)c2ccc(C(=O)NS(=O)(=O)N(C)C)cc21 (stereo not shown)	6.00 to 8.00
COc1ccc2c(c1)C=C(C(=O)N1CCn3cnnc3C1)Cn1c-2c(C2CCCCC2)c2ccc(C(=O)NS(=O)(=O)N(C)C)cc21	6.00 to 8.00
COc1ccc2c(c1)C=C(C(=O)N1CCN(c3ncncn3)CC1)Cn1c-2c(C2CCCCC2)c2ccc(C(=O)NS(=O)(=O)N(C)C)cc21	6.00 to 8.00
COc1ccc2c(c1)C=C(C(=O)NCCN1C[C@@H](C)O[C@@H](C)C1)Cn1c-2c(C2CCCCC2)c2ccc(C(=O)NS(=O)(=O)N(C)C)cc21	6.00 to 8.00
COc1ccc2c(c1)C=C(C(=O)N(C)C1CCS(=O)(=O)C1)Cn1c-2c(C2CCCCC2)c2ccc(C(=O)NS(=O)(=O)N(C)C)cc21 (stereo not shown)	6.00 to 8.00
COc1ccc2c(c1)C=C(C(=O)N1CCS(=O)(=O)CC1)Cn1c-2c(C2CCCCC2)c2ccc(C(=O)NS(=O)(=O)N(C)C)cc21	6.00 to 8.00
O=C(NCc1nnn[nH]1)c1ccc2c(C3CCCCC3)c3n(c2c1)CC(C(=O)N1CCC(N2CCOCC2)CC1)=Cc1ccccc1-3	6.00 to 8.00
O=C(NCc1ccccn1)c1ccc2c(C3CCCCC3)c3n(c2c1)CC(C(=O)N1CCC(N2CCOCC2)CC1)=Cc1ccccc1-3	6.00 to 8.00
O=C(NCc1cn2ccccc2n1)c1ccc2c(C3CCCCC3)c3n(c2c1)CC(C(=O)N1CCC(N2CCOCC2)CC1)=Cc1ccccc1-3	6.00 to 8.00
Cc1cnc(CNC(=O)c2ccc3c(C4CCCCC4)c4n(c3c2)CC(C(=O)N2CCC(N3CCOCC3)CC2)=Cc2ccccc2-4)cn1	6.00 to 8.00
C[C@@H]1CN(C(=O)C2=Cc3c(ccc4c3OCO4)-c3c(C4CCCCC4)c4ccc(C(=O)O)cc4n3C2)C[C@H](C)O1	6.00 to 8.00
COc1ccc2c(c1)C=C(C(=O)N1CCOC(CN3CCCC3)C1)Cn1c-2c(C2CCCCC2)c2ccc(C(=O)NS(=O)(=O)N(C)C)cc21 (stereo not shown)	6.00 to 8.00
O=C(NCc1ccco1)c1ccc2c(C3CCCCC3)c3n(c2c1)CC(C(=O)N1CCC(N2CCOCC2)CC1)=Cc1ccccc1-3	6.00 to 8.00
O=C(NC[C@H]1CCCO1)c1ccc2c(C3CCCCC3)c3n(c2c1)CC(C(=O)N1CCC(N2CCOCC2)CC1)=Cc1ccccc1-3	6.00 to 8.00

Same assay, conditions: Table 1b, read-out: IC50*

SMILES	pIC50
COC(=O)c1ccc2c(C3CCCCC3)c3n(c2c1)CC(C(=O)NCC=O)=Cc1cc(OC)ccc1-3	6.00 to 7.70
COc1ccc2c(c1)C=C(C(=O)N1C[C@H](CO)[C@@H](O)[C@H](O)C1)Cn1c-2c(C2CCCCC2)c2ccc(C(=O)NS(=O)(=O)N(C)C)cc21	> 7.70
COc1ccc2c(c1)C=C(C(=O)N(C)[C@H](C)C(=O)N(C)C)Cn1c-2c(C2CCCCC2)c2ccc(C(=O)NS(=O)(=O)N(C)C)cc21	> 7.70
COc1ccc2c(c1)C=C(C(=O)N(C)[C@H](C)C(=O)N1CCOCC1)Cn1c-2c(C2CCCCC2)c2ccc(C(=O)NS(=O)(=O)N(C)C)cc21	> 7.70
O=C(O)c1ccc2c(C3CCCCC3)c3n(c2c1)CC(C(=O)N1CCOC(CO)C1)=Cc1cc(F)ccc1-3 (stereo not shown)	6.00 to 7.70
COC(=O)c1ccc2c(C3CCCCC3)c3n(c2c1)CC(C(=O)N1CCOC(CO)C1)=Cc1cc(F)ccc1-3 (stereo not shown)	6.00 to 7.70
COC(=O)c1ccc2c(C3CCCCC3)c3n(c2c1)CC(C(=O)N[C@@H]1C2CCC(C)([C@@H]1O)C2(C)C)=Cc1cc(OC)ccc1-3 (stereo partly shown)	< 4.90
COc1ccc2c(c1)C=C(C(=O)N1C[C@@H](C)N(C(C)C)[C@@H](C)C1)Cn1c-2c(C2CCCCC2)c2ccc(C(=O)NS(=O)(=O)N(C)C)cc21	6.00 to 7.70
